The text below walks through data of ChEMBL document CHEMBL3745675, “Design and optimization of selective azaindole amide M1 positive allosteric modulators” (Bioorg Med Chem Lett, 2016).

This data set is described as follows: Permeability in RRCK cells. In kind it is ADME, cell-based, Canis lupus familiaris, MDCKII-LE. The note with it: dog, MDCK; read-out: permeability.

On to `O=C(N[C@H]1CCOC[C@@H]1O)c1cn(Cc2ccc(-c3cc[nH]n3)cc2)c2cccnc12`, for which the Papp was found to be 14 ×10⁻⁶ cm/s.
